Test: MT4 Cell Antiviral Assay: Antiviral HIV activity and compound-induced cytotoxicity were measured in parallel by means of a propidium iodide based procedure in the human T-cell lymphotropic virus transformed cell line MT4. Aliquots of the test compounds were serially diluted in medium (RPMI 1640, 10% fetal calf serum (FCS), and gentamycin) in 96-well plates (Costar 3598) using a Cetus Pro/Pette. …
Description: MT4 Cell Antiviral Assay: Antiviral HIV activity and compound-induced cytotoxicity were measured in parallel by means of a propidium iodide based procedure in the human T-cell lymphotropic virus transformed cell line MT4. […] Exponentially growing MT4 cells were harvested and centrifuged at 1000 rpm for 10 min in a Jouan centrifuge (model CR 4 12). […] Cell infection was allowed to proceed for 1 hr at 37° C. in a tissue culture incubator with humidified 5% CO2 atmosphere. After the 1 hr incubation the virus/cell suspensions were diluted 6-fold with fresh medium, and 125 μl of the cell suspension was added to each well of the plate containing pre-diluted compound. Plates were then placed in a tissue culture incubator with humidified 5% CO2 for 5 days. […] After thorough mixing with a Costar multitip pipetter, 60 μl of the mixture was transferred to filter-bottomed 96-well plates. The plates were analyzed in an automated assay instrument (Screen Machine, Idexx Laboratories). The control and standard used was 3′-azido-3′-deoxythymidine tested over a concentration range of 0.01 to 1 μM in every assay. […] The assay makes use of a propidium iodide dye to estimate the DNA content of each well.For MTS readout, 20 μl CellTiter 96 AQ One Solution reagent (Promega #G3582) was added to each well.

For `CC(C)C1=C2[C@H]3CC[C@@H]4[C@@]5(C)CC[C@H](OC(=O)CC(C)(C)CC(=O)O)C(C)(C)[C@@H]5CC[C@@]4(C)[C@]3(C)CC[C@@]2([C@H](O)CNCc2ccc(Cl)cc2)CC1=O`, the EC50 was 104 nM.

With `CC(C)NC[C@H](O)[C@@]12CC[C@]3(C)[C@H](CC[C@@H]4[C@@]5(C)CC[C@H](OC(=O)CC(C)(C)C(=O)O)C(C)(C)[C@@H]5CC[C@]43C)C1=C(C(C)C)C(=O)C2` the EC50 (MT4, 10 min) was 31.5 nM.

Source: ChEMBL document CHEMBL5725581, “Compounds and compositions for treating HIV with derivatives of Betulin” (2018)
